Test results as given in patent US11033547B2, “Carboxamide-pyrimidine derivatives as SHP2 antagonists” (Merck Patent GmbH, priority 2019, dated 2021).

What follows are molecules tested against Full length SHP2 protein (Recombinant Human SHP-2) (Homo sapiens, UniProt Q06124) (assay: SHP2 biochemical assay (DiFMUP substrate, activating peptide IRSI_2pY)). Conditions: DiFMUP substrate, activating peptide IRSI_2pY, 60 min at RT; read-out: SHP-2 Biochemical assay IC50.
Chain of Full length SHP2 protein (Recombinant Human SHP-2) (Q06124 2-593 limits assumed): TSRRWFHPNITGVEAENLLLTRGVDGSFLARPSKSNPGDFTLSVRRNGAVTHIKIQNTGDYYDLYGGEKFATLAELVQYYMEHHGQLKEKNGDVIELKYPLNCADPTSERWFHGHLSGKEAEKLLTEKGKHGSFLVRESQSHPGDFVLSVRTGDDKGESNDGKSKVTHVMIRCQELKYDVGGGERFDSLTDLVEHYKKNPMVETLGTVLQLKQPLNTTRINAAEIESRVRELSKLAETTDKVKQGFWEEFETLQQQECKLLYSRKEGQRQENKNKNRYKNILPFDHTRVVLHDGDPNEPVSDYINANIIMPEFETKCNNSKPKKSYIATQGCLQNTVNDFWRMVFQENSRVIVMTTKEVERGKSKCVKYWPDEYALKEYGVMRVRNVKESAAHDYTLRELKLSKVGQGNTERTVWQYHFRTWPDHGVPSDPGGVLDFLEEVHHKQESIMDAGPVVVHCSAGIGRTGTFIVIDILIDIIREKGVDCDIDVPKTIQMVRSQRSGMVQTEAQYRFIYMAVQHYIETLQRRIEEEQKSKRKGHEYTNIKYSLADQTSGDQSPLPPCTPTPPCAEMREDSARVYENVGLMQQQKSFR
Description: The inhibition of SHP2 by compounds of the invention was monitored using the surrogate substrate DiFMUP after protein activation by a peptide bearing two appropriately spaced phosphotyrosine. […] The generation of the DiFMU product by activated SHP2 was monitored through Fluorescence measurement with a PerkinElmer Envision reader.
The inhibitor dose response curves were analyzed with Genedata Screener.
For `NC(=O)c1nc(N[C@@H]2CCNC[C@@H]2F)nc(N)c1-c1cccc(Cl)c1Cl` (atropisomer, axis not shown; (M)) [Compound 64, (5M)-6-amino-5-(2,3-dichlorophenyl)-2-{[(3S,4R)-3-fluoropiperidin-4-yl]amino}-pyrimidine-4-carboxamide], the IC50 was 10 µM.
`CC1(N)CCN(c2nc(Cl)c(-c3cccc(Cl)c3Cl)c(C(N)=O)n2)CC1` (atropisomer, axis not shown; (M)) [Compound 78, (4M)-2-(4-amino-4-methylpiperidin-1-yl)-6-chloro-5-(2,3-dichlorophenyl)-pyrimidine-4-carboxamide] was tested, and the IC50 was 1.4 µM.
`Cc1nc(N[C@H]2CCC[C@@H](N)C2)nc(C(N)=O)c1-c1cccc(Cl)c1Cl` (atropisomer, axis not shown; (M)) [Compound 87, (4M)-2-{[(1S,3R)-3-aminocyclohexyl]amino}-5-(2,3-dichlorophenyl)-6-methylpyrimidine-4-carboxamide] gave an IC50 of 1.2 µM.
For `NC[C@@]12CCC[C@@H]1CN(c1nc(N)c(-c3cccc(Cl)c3Cl)c(C(N)=O)n1)C2` (atropisomer, axis not shown; (M)) [Compound 99, (5M)-2-[(3aR,6aS)-3a-(aminomethyl)octahydrocyclopenta[c]pyrrol-2-yl]-6-amino-5-(2,3-dichlorophenyl)pyrimidine-4-carboxamide], the IC50 was 3.7 µM.
With `NC(=O)c1nc(N2CCC(N)(C(F)F)CC2)nc(N)c1-c1cccc(Cl)c1Cl` (atropisomer, axis not shown; (M)) [Compound 107, (5M)-6-amino-2-[4-amino-4-(difluoromethyl)piperidin-1-yl]-5-(2,3-dichlorophenyl)-pyrimidine-4-carboxamide] the IC50 was 3.2 µM.
With `C[C@]1(N)CCCN(c2nc(N)c(-c3cccc(Cl)c3Cl)c(C(N)=O)n2)CC1` (atropisomer, axis not shown; (M)) [Compound 110, (5M)-6-amino-2-[(4S)-4-amino-4-methylazepan-1-yl]-5-(2,3-dichlorophenyl)-pyrimidine-4-carboxamide] the IC50 was 4.4 µM.
`COc1c(F)ccc(-c2c(C)nc(N3CCC(C)(N)CC3)nc2C(N)=O)c1Cl` (atropisomer, axis not shown; (M)) [Compound 115, (4M)-2-(4-amino-4-methylpiperidin-1-yl)-5-(2-chloro-4-fluoro-3-methoxyphenyl)-6-methylpyrimidine-4-carboxamide] gave an IC50 of 0.57 µM.
`Cc1nc(N2CCC(C)(N)CC2)nc(C(N)=O)c1-c1cccc(Cl)c1Cl` (atropisomer, axis not shown; (P)) [Compound 31, (4P)-2-(4-amino-4-methylpiperidin-1-yl)-5-(2,3-dichlorophenyl)-6-methylpyrimidine-4-carboxamide] was tested, and the IC50 was 7.9 µM.
In the case of `Cc1nc(N2CCOC[C@H]2CN)nc(C(N)=O)c1-c1cccc(Cl)c1Cl` (atropisomer, axis not shown; (P)) [Compound 47, (4P)-2-[(3R)-3-(aminomethyl)morpholin-4-yl]-5-(2,3-dichlorophenyl)-6-methylpyrimidine-4-carboxamide], the IC50 is reported as over 10 µM.
`Cc1nc(N2CCOC[C@@H]2CN)nc(C(N)=O)c1-c1cccc(Cl)c1Cl` (atropisomer, axis not shown; (P)) [Compound 48, (4P)-2-[(3S)-3-(aminomethyl)morpholin-4-yl]-5-(2,3-dichlorophenyl)-6-methylpyrimidine-4-carboxamide] gave an IC50 of over 10 µM.
In the case of `Cc1nc(N[C@@H]2CCC[C@H](N)C2)nc(C(N)=O)c1-c1cccc(Cl)c1Cl` (atropisomer, axis not shown; (P)) [Compound 89, (4P)-2-{[(1R,3S)-3-aminocyclohexyl]amino}-5-(2,3-dichlorophenyl)-6-methylpyrimidine-4-carboxamide], the IC50 is reported as 13 µM.
`Cc1nc(N[C@H]2CCC[C@@H](N)C2)nc(C(N)=O)c1-c1cccc(Cl)c1Cl` (atropisomer, axis not shown; (P)) [Compound 90, (4P)-2-{[(1S,3R)-3-aminocyclohexyl]amino}-5-(2,3-dichlorophenyl)-6-methylpyrimidine-4-carboxamide] was tested, and the IC50 was over 10 µM.
`NC(=O)c1nc(N2CCC(N)(C(F)F)CC2)nc(N)c1-c1cccc(Cl)c1Cl` (atropisomer, axis not shown; (P)) [Compound 106, (5P)-6-amino-2-[4-amino-4-(difluoromethyl)piperidin-1-yl]-5-(2,3-dichlorophenyl)-pyrimidine-4-carboxamide] gave an IC50 of 15 µM.
In the case of `C[C@]1(N)CCCN(c2nc(N)c(-c3cccc(Cl)c3Cl)c(C(N)=O)n2)CC1` (atropisomer, axis not shown; (P)) [Compound 108, (5P)-6-amino-2-[(4S)-4-amino-4-methylazepan-1-yl]-5-(2,3-dichlorophenyl)-pyrimidine-4-carboxamide], the IC50 is reported as 1.3 µM.
In the case of `COc1c(F)ccc(-c2c(C)nc(N3CCC(C)(N)CC3)nc2C(N)=O)c1Cl` (atropisomer, axis not shown; (P)) [Compound 116, (4P)-2-(4-amino-4-methylpiperidin-1-yl)-5-(2-chloro-4-fluoro-3-methoxyphenyl)-6-methylpyrimidine-4-carboxamide], the IC50 is reported as over 10 µM.
`NC(=O)c1nc(N2C[C@H]3CCCCC[C@@H](C2)C3N)nc(N)c1-c1cccc(Cl)c1Cl` (single isomer, unassigned) [Compound 14] gave an IC50 of 8.8 µM.
For `Cc1nc(N2CCC3(CC2)CO[C@@H](C)[C@H]3N)nc(C(N)=O)c1-c1cccc(Cl)c1Cl` (single isomer, unassigned) [Compound 94], the IC50 was 2.6 µM.
With `NC[C@@]12CCCC[C@@H]1CN(c1nc(N)c(-c3cccc(Cl)c3Cl)c(C(N)=O)n1)C2` (single isomer, unassigned) [Compound 102] the IC50 was 17 µM.
`NC[C@]12CCCC[C@H]1CN(c1nc(N)c(-c3cccc(Cl)c3Cl)c(C(N)=O)n1)C2` (single isomer, unassigned) [Compound 103] was tested, and the IC50 was 5.6 µM.
`NC[C@]12CCC[C@H]1CN(c1nc(N)c(-c3cccc(Cl)c3Cl)c(C(N)=O)n1)C2` (single isomer, unassigned) [Compound 105] was tested, and the IC50 was 10 µM.
`Cc1nc(N2CCC3(CCC[C@H]3N)CC2)nc(C(N)=O)c1-c1cccc(Cl)c1Cl` (single isomer, unassigned) [Compound 113] showed an IC50 of 0.66 µM.
In the case of `NC(=O)c1nc(N2CCC3(CC2)Cc2ccccc2[C@H]3N)nc(N)c1-c1cccc(Cl)c1Cl` (single isomer, unassigned) [Compound 118], the IC50 is reported as 0.041 µM.
`NC(=O)c1nc(N2CCC3(CC2)Oc2ncccc2C3N)nc(N)c1-c1cccc(Cl)c1Cl` (single isomer, unassigned) [Compound 128] was tested, and the IC50 was 0.006 µM.
`NC(=O)c1nc(N2CCC3(CC2)Oc2ncccc2C3N)nc(N)c1-c1cccc(Cl)c1Cl` (single isomer, unassigned) [Compound 129] gave an IC50 of 0.33 µM.
`NC(=O)c1nc(N2CCC3(CC2)Oc2ncccc2[C@@H]3N)nc(N)c1-c1cccc(Cl)c1Cl` (single isomer, unassigned) [Compound 130] was tested, and the IC50 was 0.077 µM.
Work on `NC(=O)c1nc(N2CCC3(CC2)Oc2ncccc2[C@@H]3N)nc(N)c1-c1cccc(Cl)c1Cl` (single isomer, unassigned) [Compound 131] yielded an IC50 of 7 µM.
With `Cc1nc(N2CCC3(CCC[C@H]3N)C2)nc(C(N)=O)c1-c1cccc(Cl)c1Cl` (stereo in doubt) [Compound 35, 2-((R)-6-Amino-2-aza-spiro[4.4]non-2-yl)-5-(2,3-dichloro-phenyl)-6-methyl-pyrimidine-4-carboxylic acid amide] the IC50 was 1.1 µM.
With `Cc1nc(N2CCC3(CCC[C@@H]3N)C2)nc(C(N)=O)c1-c1cccc(Cl)c1Cl` (stereo in doubt) [Compound 37, 2-((S)-6-Amino-2-aza-spiro[4.4]non-2-yl)-5-(2,3-dichloro-phenyl)-6-methyl-pyrimidine-4-carboxylic acid amide] the IC50 was 1.1 µM.
With `CC1(N)CCN(c2nc(N)c(-c3cccc(F)c3)c(C(N)=O)n2)CC1` [Compound 4, 6-Amino-2-(4-amino-4-methyl-piperidin-1-yl)-5-(3-fluoro-phenyl)pyrimidine-4-carboxylic Acid Amide] the IC50 was 3.7 µM.
Work on `NC(=O)c1nc(N2CC3CCCC(C2)C3N)nc(N)c1-c1cccc(Cl)c1Cl` (stereo not drawn) [Compound 6, 6-amino-2-{9-amino-3-azabicyclo[3.3.1]nonan-3-yl}-5-(2,3-dichlorophenyl)pyrimidine-4-carboxamide] yielded an IC50 of 2.7 µM.
Work on `CC(C)C1N(c2nc(N)c(-c3cccc(Cl)c3Cl)c(C(N)=O)n2)CC12CC(N)C(O)C2` (stereo not drawn) [Compound 10, 6-amino-2-[6-amino-7-hydroxy-1-(propan-2-yl)-2-azaspiro[3.4]octan-2-yl]-5-(2,3-dichlorophenyl)pyrimidine-4-carboxamide] yielded an IC50 of 9.6 µM.
`NCC1CC2CCC(C1)N2c1nc(N)c(-c2cccc(Cl)c2Cl)c(C(N)=O)n1` (stereo not drawn) [Compound 12, 6-amino-2-[3-(aminomethyl)-8-azabicyclo[3.2.1]octan-8-yl]-5-(2,3-dichlorophenyl)pyrimidine-4-carboxamide] was tested, and the IC50 was 1.6 µM.
`NC(=O)c1nc(N2C[C@H]3CCCCC[C@@H](C2)[C@@H]3N)nc(N)c1-c1cccc(Cl)c1Cl` [Compound 13, 6-amino-5-(2,3-dichlorophenyl)-2-[(1R,7S,11s)-11-amino-9-azabicyclo[5.3.1]undecan-9-yl]pyrimidine-4-carboxamide] gave an IC50 of over 10 µM.
`CC1(N)CCN(c2nc(N)c(-c3cccc(Cl)c3Cl)c(C(=O)NCCO)n2)CC1` [Compound 17, 6-Amino-2-(4-amino-4-methyl-piperidin-1-yl)-5-(2,3-dichlorophenyl)-pyrimidine-4-carboxylic acid (2-hydroxy-ethyl)-amide] gave an IC50 of 12 µM.
Work on `CC1(N)CCN(c2nc(Cl)c(-c3cccc(F)c3)c(C(N)=O)n2)CC1` [Compound 19, 2-(4-Amino-4-methyl-piperidin-1-yl)-6-chloro-5-(3-fluorophenyl)-pyrimidine-4-carboxylic Acid Amide] yielded an IC50 of 87 µM.
Molecule `CC1(N)CCN(c2nc(N)c(-c3cccc(Cl)c3Cl)c(C(=O)NN)n2)CC1` [Compound 21, 6-Amino-2-(4-amino-4-methyl-piperidin-1-yl)-5-(2,3-dichlorophenyl)-pyrimidine-4-carboxylic Acid Hydrazide] has an IC50 of 1.6 µM.
